Experiments:
[1] = tested on: IL-6 and IL-8 secretion in BEAS-2B cells; experiment: Particle-induced secretion of pro-inflammatory cytokines (ELISA) in BEAS-2B cells; format: cell-based
Method: (§1) Secretion of the pro-inflammatory cytokines interleukin (IL)-6, IL-8 (as well as GM-CSF and MCP-1) into cell media in response to particle exposure was measured in A549 and BEAS-2B cells using the following method.
(§2) Lung epithelial cells were seeded at 5×10^4 in 24-well plates. After pre-incubation with NBMI, the anti-oxidant compound, N-acetyl-L-cysteine (NAC), which was used as a positive control, or vehicle, for 3 hours the medium was removed.
(§3) Fresh media containing various particles (as below) in different concentrations was in a total volume of 0.5 ml for an additional 24 hours. The supernatants were then separated from the cells by centrifugation.
(§4) IL-8, IL-6, GM-CSF and MCP-1 were measured in the cell free fluid using the DuoSet ELISA Development kit (R&D Systems, Abingdon, UK) according to manufacturer's protocol.
(§5) Exposure to medium only served as negative control. Each experiment was performed twice with 4 replicates.
(§6) The effect of pre-incubation with 50 μM NBMI on particle-induced cytokine formation was tested at various concentrations of relevant particles.

[2] = Ascorbate depletion assay, CuSO4-sponsored oxidation, recycling of DHA; conditions: CuSO4 model
Method: (§7) The kinetics of ascorbate oxidation, sponsored by both 1 μM 9,10-PQ and 2 μM copper sulphate (CuSO4), was examined using the ascorbate depletion assay (Kelly et al, Res. Rep. Health Eff. Inst., 163, 3 (2011). 9,10-PQ was employed so that the action of NBMI could be examined in isolation of its chelation properties.
(§8) All experiments were performed in triplicate in UV 96 well flat-bottomed plates (Greiner bio-one) at a final volume of 200 μL. Exposures were initiated by the addition of 20 μL of a concentrated stock of ascorbate (2 mM) into each well containing 160 μL of Chelex-100 resin treated water (containing 10% DMSO), plus either 10 μL of water, CuSO4 stock solution at 4 mM or 9,10-PQ stock solution at 2 mM, and 10 μL of NMBI (4 mM and […]).
(§9) All solutions were prepared in Chelex-100 resin treated water (containing 10% DMSO). This yielded final concentrations in the wells of […], 2 μM CuSO4, or 1 μM 9,10-PQ and between 10 and 200 μM of NBMI.
(§10) Immediately prior to the addition of the ascorbate to each assay well, the plate was pre-incubated for 10 minutes at 37° C. in a plate reader (Spectra Max 190). During the exposure, the plate was maintained at this temperature. After addition of ascorbate, the concentration remaining in each well was monitored every 2 minutes for a period of two hours by measuring the absorbance at 265 nm. The ascorbate concentration was determined with reference to a standard curve, with the rate of ascorbate oxidation determined by performing a linear regression through the initial part of a concentration verses time plot using Microcal Software Limited's OriginLab (version 5.0). This was performed for each of the triplicates and the rate of ascorbate depletion was finally expressed as mean mol s 1×10^−9 depletion of ascorbate±standard deviation.
(§11) For the experiments in which the impact of adding NBMI to the ascorbate was measured, CuSO4 and 9,10-PQ depletion assays were examined later in the time course. The plates were ran with 190 μL only for the first 55-60 minutes, after which they were removed from the plate reader and 10 μL of either the NMBI or the known reducing agent, DTT stock solution, or water was added to each well. The plate was then returned to the plate reader and the absorbance at 265 nm monitored for a further 60 minutes.
(§12) The immediate increase in the measured ascorbate concentrations was determined and is referred to as the ‘jump’, as a measure of immediate recycling capacity. The sustained ‘increase’ over the remaining 60 minutes of the incubation was also determined.

[3] = Ascorbate depletion assay, 9,10-PQ-sponsored oxidation, recycling of DHA; conditions: 9,10-PQ model, 200 μM added at 60 minutes
Method: as §7, §8, §9, §10, §11, §12

[4] = tested on: IL-6 and IL-8 secretion in A549 cells; experiment: Particle-induced secretion of pro-inflammatory cytokines (ELISA) in A549 cells; format: cell-based; conditions: A549 cells
Method: as §1, §2, §3, §4, §5, §6

[5] = tested on: COPD; experiment: Treatment of patient with COPD; format: in vivo, human
Method: A retired person residing in the USA, who had been medically diagnosed with COPD several years earlier, regularly experienced coughing fits two to four times in any 24 hour period, beginning at any hour of the day or night and lasting from about 40 to 75 minutes. As a consequence of these coughing fits, the patient's breathing was shallow, their throat irritated, their voice was raspy, their energy levels very low and their quality of life very poor.

[6] = TiO2 P25 100 μg/cm^2, pre-incubation 50 μM NBMI
[7] = Urban Dust 100 μg/cm^2, pre-incubation 50 μM NBMI
[8] = TiO2 P25 75 μg/cm^2, pre-incubation 50 μM NBMI
[9] = by the eighth day, 100 mg capsule three times daily

O=C(NCCS)c1cccc(C(=O)NCCS)c1 [NBMI, N,N-bis-2-mercaptoethyl isophthalamide]
reduction of secretion of IL-6 [1, 6]: 37%
reduction of secretion of IL-8 [1, 6]: 49%
reduction of secretion of IL-6 [1, 7]: 47%
immediate 'jump' in ascorbate concentration ([2]; 200 μM added at 60 minutes): 24.98 ± 5.54 µM
sustained 'increase' in ascorbate over remaining 60 minutes ([2]; 200 μM added at 60 minutes): 25.45 ± 2.45 µM
subsequent rate of oxidation after addition ([2]; addition at 10, 20 and 30 minutes): quenched
immediate rebound increase in ascorbate [3]: 42.8 µM
rate of ascorbate oxidation after addition [3]: reduced relative to the first 60 minute period
reduction of secretion of IL-6 [4, 8]: 38%
reduction of secretion of IL-8 [4, 8]: 29%
reduction of secretion of IL-6 [4, 7]: 38%
reduction of secretion of IL-8 [4, 7]: 30%
symptoms of COPD ([5]; 100 mg capsule three times daily for eight days, one patient): marked improvement in symptoms
breathing [5, 9]: significantly improved breathing
coughing fits [5, 9]: no coughing fits
